Source: patent US10077261B2, “Imidazolin-5-one derivative useful as FASN inhibitors for the treatment of cancer” (Janssen Pharmaceutica NV, priority 2012, dated 2018)
pIC50: −log10 of the molar value.

Assays:
[1] = target: T1, hFASN enzyme (full length) (Homo sapiens, UniProt P49327); experiment: Fatty Acid Synthase (FASN) inhibition scintillation proximity assay; format: biochemical; settings: for inhibition at 10 µM: read-out: Human FASN % inhibition @ 10 μM, 10 μM test compound; for IC50: read-out: Human FASN pIC50 (converted)
T1 construct: 10 μL hFASN enzyme (full length, 300 ng, purified in house); made in house
T1 sequence (P49327 whole entry): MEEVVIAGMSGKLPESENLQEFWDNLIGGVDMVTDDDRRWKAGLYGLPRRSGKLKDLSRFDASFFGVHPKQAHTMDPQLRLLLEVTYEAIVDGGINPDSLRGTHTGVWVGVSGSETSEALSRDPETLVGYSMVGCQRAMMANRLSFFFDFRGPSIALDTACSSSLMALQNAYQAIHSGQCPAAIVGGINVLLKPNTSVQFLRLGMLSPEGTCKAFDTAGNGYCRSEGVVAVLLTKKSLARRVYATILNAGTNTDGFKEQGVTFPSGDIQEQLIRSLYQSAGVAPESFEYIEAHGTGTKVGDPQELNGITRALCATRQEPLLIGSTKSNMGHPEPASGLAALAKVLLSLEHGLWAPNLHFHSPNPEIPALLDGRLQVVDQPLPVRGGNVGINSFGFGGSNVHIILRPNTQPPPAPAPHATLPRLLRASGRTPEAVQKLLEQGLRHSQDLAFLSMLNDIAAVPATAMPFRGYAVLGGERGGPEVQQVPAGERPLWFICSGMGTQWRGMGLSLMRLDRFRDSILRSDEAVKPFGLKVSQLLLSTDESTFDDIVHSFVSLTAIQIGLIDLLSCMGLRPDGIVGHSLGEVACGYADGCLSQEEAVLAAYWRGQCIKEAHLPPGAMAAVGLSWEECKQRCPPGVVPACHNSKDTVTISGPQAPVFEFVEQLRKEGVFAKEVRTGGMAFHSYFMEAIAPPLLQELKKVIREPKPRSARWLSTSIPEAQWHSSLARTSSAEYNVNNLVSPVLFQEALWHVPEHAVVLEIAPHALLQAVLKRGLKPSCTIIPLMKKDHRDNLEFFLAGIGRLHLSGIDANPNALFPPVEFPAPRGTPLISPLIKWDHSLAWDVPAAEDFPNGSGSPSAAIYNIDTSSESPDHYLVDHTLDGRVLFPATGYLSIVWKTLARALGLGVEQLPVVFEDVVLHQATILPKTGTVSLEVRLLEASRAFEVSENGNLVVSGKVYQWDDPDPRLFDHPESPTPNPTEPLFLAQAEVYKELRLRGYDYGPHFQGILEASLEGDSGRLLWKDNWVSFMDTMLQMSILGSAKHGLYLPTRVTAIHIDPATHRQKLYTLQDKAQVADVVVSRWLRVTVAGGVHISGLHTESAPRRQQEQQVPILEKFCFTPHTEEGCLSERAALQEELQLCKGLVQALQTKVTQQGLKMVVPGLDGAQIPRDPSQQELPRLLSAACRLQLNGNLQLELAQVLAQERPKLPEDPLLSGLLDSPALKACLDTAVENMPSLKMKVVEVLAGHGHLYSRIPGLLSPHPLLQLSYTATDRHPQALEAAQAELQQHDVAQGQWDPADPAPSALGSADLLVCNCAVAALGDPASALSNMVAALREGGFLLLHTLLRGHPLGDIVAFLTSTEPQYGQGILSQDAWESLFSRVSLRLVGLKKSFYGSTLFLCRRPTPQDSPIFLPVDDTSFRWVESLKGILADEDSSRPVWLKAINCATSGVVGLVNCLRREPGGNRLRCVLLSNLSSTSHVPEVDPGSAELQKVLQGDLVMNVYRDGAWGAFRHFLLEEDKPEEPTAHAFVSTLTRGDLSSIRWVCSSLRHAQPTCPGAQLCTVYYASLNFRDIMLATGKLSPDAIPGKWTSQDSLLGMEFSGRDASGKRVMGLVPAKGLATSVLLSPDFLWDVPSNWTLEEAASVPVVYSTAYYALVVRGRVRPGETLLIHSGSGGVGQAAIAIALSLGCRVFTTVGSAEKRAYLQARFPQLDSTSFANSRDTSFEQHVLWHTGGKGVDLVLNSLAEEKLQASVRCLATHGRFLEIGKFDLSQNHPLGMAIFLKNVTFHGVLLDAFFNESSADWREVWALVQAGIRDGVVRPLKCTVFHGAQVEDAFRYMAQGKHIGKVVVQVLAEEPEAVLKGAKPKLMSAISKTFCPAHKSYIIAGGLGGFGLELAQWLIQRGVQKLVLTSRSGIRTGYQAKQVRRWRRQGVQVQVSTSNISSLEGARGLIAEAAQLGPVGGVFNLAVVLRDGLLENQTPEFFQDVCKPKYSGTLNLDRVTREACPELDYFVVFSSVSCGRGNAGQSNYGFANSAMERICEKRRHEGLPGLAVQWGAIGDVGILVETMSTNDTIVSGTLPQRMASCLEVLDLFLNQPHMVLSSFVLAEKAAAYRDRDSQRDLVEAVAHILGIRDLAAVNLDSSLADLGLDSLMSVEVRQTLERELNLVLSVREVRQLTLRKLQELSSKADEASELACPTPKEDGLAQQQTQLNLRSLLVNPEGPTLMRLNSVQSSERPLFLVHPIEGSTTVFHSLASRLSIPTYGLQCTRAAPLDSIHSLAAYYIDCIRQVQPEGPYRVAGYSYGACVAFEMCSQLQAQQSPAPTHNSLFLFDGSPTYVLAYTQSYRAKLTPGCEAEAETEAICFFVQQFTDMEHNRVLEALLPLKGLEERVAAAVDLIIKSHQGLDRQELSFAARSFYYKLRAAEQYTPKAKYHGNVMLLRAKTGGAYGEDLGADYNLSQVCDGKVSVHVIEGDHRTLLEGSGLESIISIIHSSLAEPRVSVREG
Summary of the method: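 Read-out relies on hydrophobic ³H-palmitate product, formed from ³H-acetyl-CoA and malonyl-CoA, binding streptavidin imaging beads, measured at 610±20 nm after at least 24 h. Full-length enzyme (300 ng) in phosphate buffer pH 7.5 with DTT; eight compound concentrations, 0.01–30 μM.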

A2780 ovarian cells [2] = experiment: A2780 ovarian cell proliferation assay in lipid reduced medium, with palmitate (MTT); format: cell-based; settings: Homo sapiens, A2780, 96 h; read-out: pIC50 A2780 Ovarian Cell, With Palmitate (converted)
Summary of the method: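 In this palmitate-supplemented format, compound dilutions (30 μM down to 0.01 μM) are added to cells in lipid-reduced serum with 25 μM palmitate, 0.2% fatty-acid-free BSA and 0.25% ethanol. After four days (96 h) MTT absorbance at 544 nm is recorded and fitted by minimum sum of squares.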

A2780 ovarian cells [3] = experiment: A2780 ovarian cell proliferation assay in lipid reduced medium, without palmitate (MTT); format: cell-based; settings: Homo sapiens, A2780, 96 h; read-out: pIC50 A2780 Ovarian Cell, Without Palmitate (converted)
[4] = system: LNCaP-Vancouver prostate cells; experiment: In vitro LNCaP Vancouver prostate cell proliferation assay in lipid reduced medium; format: cell-based; settings: read-out: pIC50 LNCaP_Vancouver prostate cell (converted)
[5] = system: PC-3M-Luc-C6 prostate cells; experiment: In vitro PC-3M-Luc-C6 prostate cell proliferation assay in lipid reduced medium; format: cell-based; settings: 96 h, read-out: pIC50 PC-3M-Luc-C6 prostate cell (converted)
[6] = target: Fatty Acid Synthase Keto-reductase Domain (FASN KR) (Homo sapiens, UniProt P49327); experiment: Fatty Acid Synthase keto-reductase domain (FASN KR) inhibition, NADPH oxidation at 340 nm
Chain of Fatty Acid Synthase Keto-reductase Domain (FASN KR) (P49327 whole entry, the tested form may be a part): as the sequence (P49327 whole entry) above
Experimental: After 20 minutes incubation at room temperature the plate was measured again (T2).
The decrease in absorbance was calculated as (Absorbance before incubation T1)−(Absorbance following incubation T2).
A plot of Controlmin versus test compound concentration was fitted to a 4-parameter logistic curve using a non-linear least squares regression method.

inhibition at 10 µM [1] [%] | IC50 [1] [nM] | IC50 (A2780 ovarian cells [2]) [nM] | IC50 (A2780 ovarian cells [3]) [nM] | IC50 [4] [nM] | IC50 [5] [nM] | pIC50 [6] | SMILES
100 | 110 | > 10000 | 282 | ~1020 | 309 | 6.47 | Cn1ccc2ccc(-c3ccc(C4=NC5(CC5)C(=O)N4CC4CN(C(=O)C5CC5)C4)cc3)cc21 [compound 541, 6-{[1-(Cyclopropylcarbonyl)azetidin-3-yl]methyl}-5-[4-(1-methyl-1H-indol-6-yl)phenyl]-4,6-diazaspiro[2.4]hept-4-en-7-one]
89 | 692 | > 10000 | 832 | 3020 | 4470 | 5.79 | Cn1ccc(-c2ccc(-c3ccc(C4=NC5(CC5)C(=O)N4CC4CN(C(=O)C5CC5)C4)cc3)cc2)n1 [compound 542, 6-{[1-(Cyclopropylcarbonyl)azetidin-3-yl]methyl}-5-[4′-(1-methyl-1H-pyrazol-3-yl)biphenyl-4-yl]-4,6-diazaspiro[2.4]hept-4-en-7-one]
98 | 204 | 1620 | 52.5 | 776 | 141 | 6.14 | CC(C)Cn1cc(-c2ccc(-c3ccc(C4=NC5(CC5)C(=O)N4CC4CN(C(=O)C5CC5)C4)cc3)cc2)cn1 [compound 544, 6-{[1-(Cyclopropylcarbonyl)azetidin-3-yl]methyl}-5-{4′-[1-(2-methylpropyl)-1H-pyrazol-4-yl]biphenyl-4-yl}-4,6-diazaspiro[2.4]hept-4-en-7-one]
101 | 110 | > 10000 | 91.2 | 269 | 126 | 6.59 | Cc1cc(-c2ccc3c(cnn3C)c2)ccc1C1=NC2(CC2)C(=O)N1CC1CN(C(=O)C2CCO2)C1 (centres unmarked) [compound 545, 5-[2-Methyl-4-(1-methyl-1H-indazol-5-yl)phenyl]-6-{[1-(oxetan-2-ylcarbonyl)azetidin-3-yl]methyl}-4,6-diazaspiro[2.4]hept-4-en-7-one]
97 | 129 | 7760 | ~145 | 646 | ~174 | 6.57 | Cc1ccnc2cc(-c3ccc(C4=NC5(CC5)C(=O)N4CC4CN(C(=O)C5CC5)C4)cc3)ccc12 [compound 554, 6-{[1-(Cyclopropylcarbonyl)azetidin-3-yl]methyl}-5-[4-(4-methylquinolin-7-yl)phenyl]-4,6-diazaspiro[2.4]hept-4-en-7-one]
96 | 186 | 6310 | ~562 | 2510 | 724 | 6.15 | Cc1nc2ccc(-c3ccc(C4=NC5(CC5)C(=O)N4CC4CN(C(=O)C5CC5)C4)c(F)c3)cc2s1 [compound 558, 6-{[1-(Cyclopropylcarbonyl)azetidin-3-yl]methyl}-5-[2-fluoro-4-(2-methyl-1,3-benzothiazol-6-yl)phenyl]-4,6-diazaspiro[2.4]hept-4-en-7-one]
97 | 245 | > 10000 | 955 | 3090 | 1620 | 5.86 | Cc1nc2cc(-c3ccc(C4=NC5(CC5)C(=O)N4CC4CN(C(=O)C5CC5)C4)cc3)ccc2s1 [compound 562, 6-{[1-(Cyclopropylcarbonyl)azetidin-3-yl]methyl}-5-[4-(2-methyl-1,3-benzothiazol-5-yl)phenyl]-4,6-diazaspiro[2.4]hept-4-en-7-one]

Second part, the compound before the results:

SMILES | inhibition at 10 µM [1] [%] | IC50 [1] [nM] | IC50 (A2780 ovarian cells [2]) [nM] | IC50 (A2780 ovarian cells [3]) [nM] | IC50 [4] [nM] | IC50 [5] [nM] | pIC50 [6]
Cc1cc(-c2ccc3c(cnn3C)c2)ccc1C1=NC2(CC2)C(=O)N1CC1CN(C(=O)C2(C)COC2)C1 [compound 496, 5-[2-Methyl-4-(1-methyl-1H-indazol-5-yl)phenyl]-6-({1-[(3-methyloxetan-3-yl)carbonyl]azetidin-3-yl}methyl)-4,6-diazaspiro[2.4]hept-4-en-7-one] | 94 | 302 | > 10000 | 209 | 1740 | ~355 | 6.24
Cc1cc(-c2ccc(C3=NC4(CC4)C(=O)N3CC3CN(C(=O)C4CC4)C3)c(F)c2)cc2cnn(C)c12 [compound 520, 6-{[1-(Cyclopropylcarbonyl)azetidin-3-yl]methyl}-5-[4-(1,7-dimethyl-1H-indazol-5-yl)-2-fluorophenyl]-4,6-diazaspiro[2.4]hept-4-en-7-one] | 97 | 427 | > 10000 | 389 | 2570 | 501 | 6.20
CCn1ncc2cc(-c3ccc(C4=NC5(CC5)C(=O)N4CC4CN(C(=O)C5CC5)C4)c(F)c3)ccc21 [compound 521, 6-{[1-(Cyclopropylcarbonyl)azetidin-3-yl]methyl}-5-[4-(1-ethyl-1H-indazol-5-yl)-2-fluorophenyl]-4,6-diazaspiro[2.4]hept-4-en-7-one] | 94 | 513 | > 10000 | ~339 | 1910 | 603 | 6.17
O=C(C1CC1)N1CC(CN2C(=O)C3(CC3)N=C2c2ccc(-c3ccc4c(cnn4CC4CC4)c3)cc2F)C1 [compound 523, 6-{[1-(Cyclopropylcarbonyl)azetidin-3-yl]methyl}-5-{4-[1-(cyclopropylmethyl)-1H-indazol-5-yl]-2-fluorophenyl}-4,6-diazaspiro[2.4]hept-4-en-7-one] | 92 | 513 | > 10000 | 676 | 3240 | 1170 | 5.83
O=C(C1CC1)N1CC(CN2C(=O)C3(CC3)N=C2c2ccc(-c3ccc(-n4ccnc4)nc3)cc2F)C1 [compound 526, 6-{[1-(Cyclopropylcarbonyl)azetidin-3-yl]methyl}-5-{2-fluoro-4-[6-(1H-imidazol-1-yl)pyridin-3-yl]phenyl}-4,6-diazaspiro[2.4]hept-4-en-7-one] | 93 | 912 | > 10000 | ~1020 | 5890 | 1480 | 5.66
O=C(C1CC1)N1CC[C@@H](CN2C(=O)C3(CC3)N=C2c2ccc(-c3n[nH]c4ccccc34)cc2F)C1 [compound 529, 6-{[(3R)-1-(Cyclopropylcarbonyl)pyrrolidin-3-yl]methyl}-5-[2-fluoro-4-(1H-indazol-3-yl)phenyl]-4,6-diazaspiro[2.4]hept-4-en-7-one] | 96 | 102 | > 10000 | ~83.2 | 724 | ~83.2 | 6.81
O=C(C1CC1)N1CC(CN2C(=O)C3(CC3)N=C2c2ccc(-c3cc4ccccc4cn3)cc2)C1 [compound 531, 6-{[1-(Cyclopropylcarbonyl)azetidin-3-yl]methyl}-5-(4-isoquinolin-3-ylphenyl)-4,6-diazaspiro[2.4]hept-4-en-7-one] | 96 | 170 | > 10000 | 148 | 1350 | 302 | 6.27
Cn1cc(-c2ccc(-c3ccc(C4=NC5(CC5)C(=O)N4CC4CN(C(=O)C5CC5)C4)cc3)nc2)cn1 [compound 534, 6-{[1-(Cycloprropylcarbonyl)azetidin-3-yl]methyl}-5-{4-[5-(1-methyl-1H-pyrazol-4-yl)pyridin-2-yl]phenyl}-4,6-diazaspiro[2.4]hept-4-en-7-one] | 95 | 162 | > 10000 | 776 | ~5620 | 1000 | 5.86
O=C(C1CC1)N1CC(CN2C(=O)C3(CC3)N=C2c2ccc(-c3ccc4nn(CCO)cc4c3)cc2F)C1 [compound 536, 6-{[1-(Cyclopropylcarbonyl)azetidin-3-yl]methyl}-5-{2-fluoro-4-[2-(2-hydroxyethyl)-2H-indazol-5-yl]phenyl}-4,6-diazaspiro[2.4]hept-4-en-7-one] | 88 | 1230 | > 10000 | 955 | ~7590 | ~3090 | 5.45
O=C(C1CC1)N1CC(CN2C(=O)C3(CC3)N=C2c2ccc(-c3ccc(Cl)cc3F)cc2F)C1 [compound 537, 5-(4′-Chloro-2′,3-difluorobiphenyl-4-yl)-6-{[1-(cyclopropylcarbonyl)azetidin-3-yl]methyl}-4,6-diazaspiro[2.4]hept-4-en-7-one] | 99 | 174 | > 10000 | 263 | 1320 | 617 | 6.37
